The first test has as its system AKT protein phosphorylated on serine 473 (P-AKT-S473) in PC3 human prostate carcinoma cells. As to the kind of experiment: pAKT expression in PC3 human prostate carcinoma cells, MSD Multi-spot Biomarker detection (Test A). The test is classed as cell-based. Conditions: Homo sapiens, PC-3, PC3 cells, 1 to 2 h incubation, P-AKT-S473, absolute IC50, mean of two independent experiments. In outline:
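Lysate pAKT-S473 measured by electrochemiluminescent sandwich immunoassay; inhibition versus cell-free background and DMSO-only wells, IC50 averaged over two experiments.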
Take `Cn1c(CC(=O)N2CCc3c2cccc3C(F)(F)F)nc(N2CCOCC2)cc1=O` [Example 4d, 3-methyl-6-(morpholin-4-yl)-2-{2-oxo-2-[4-(trifluoromethyl)-2,3-dihydro-1H-indol-1-yl]ethyl}pyrimidin-4(3H)-one]: the midpoint of inhibition, the IC50, lay at 63 nM.
On the same count and under the same terms, under `C[C@H]1Cc2ccccc2N1C(=O)Cc1nc(N2CCOCC2)cc(=S)n1C` [Example 4e, 1-((S)-2-methyl-2,3-dihydroindol-1-yl)-2-(1-methyl-4-morpholin-4-yl-6-thioxo-1,6-dihydropyrimidin-2-yl)ethanone] stands 41 nM; under `C[C@H]1Cc2ccccc2N1C(=O)Cc1nc(N2CCOCC2)c(F)c(=O)[nH]1` [Example 5a, 5-fluoro-2-{2-[(2S)-2-methyl-2,3-dihydro-1H-indol-1-yl]-2-oxoethyl}-6-(morpholin-4-yl)pyrimidin-4(3H)-one], 15 nM.
Consider `CC1(C)CN(C(=O)Cc2nc(N3CCOCC3)cc(=O)[nH]2)c2cccc(Cl)c21` [Example 5c, 2-[2-(4-chloro-3,3-dimethyl-2,3-dihydro-1H-indol-1-yl)-2-oxoethyl]-6-(morpholin-4-yl)pyrimidin-4(3H)-one], for which it took 14 nM to reach half-maximal inhibition (IC50). This IC50 and that of the compound before are within 1.5-fold of each other.
`O=C(Cc1nc(N2CCOCC2)cc(=O)[nH]1)N1CCc2c1cccc2C(F)(F)F` [Example 5d, 6-(morpholin-4-yl)-2-{2-oxo-2-[4-(trifluoromethyl)-2,3-dihydro-1H-indol-1-yl]ethyl}pyrimidin-4(3H)-one] yielded a 50% inhibitory concentration (IC50) of 9 nM.
Regarding `C[C@@H]1Cc2ccccc2N1C(=O)Cc1nc(N2CCOCC2)cc(=S)n1C` [Example 5e, 1-((R)-2-methyl-2,3-dihydroindol-1-yl)-2-(1-methyl-4-morpholin-4-yl-6-thioxo-1,6-dihydropyrimidin-2-yl)ethanone], it took 71 nM to reach half-maximal inhibition (IC50).
`COc1ccccc1-c1cccc2c1CCN2C(=O)Cc1nc(N2CCOCC2)cc(=O)[nH]1` [Example 6d, 2-{2-[4-(2-methoxyphenyl)-2,3-dihydro-1H-indol-1-yl]-2-oxoethyl}-6-(morpholin-4-yl)pyrimidin-4(3H)-one] displayed an IC50 of 32 nM.
In turn, `Cn1c(CC(=O)N2CCc3c(F)cccc32)nc(N2CCOCC2)cc1=S` [Example 6e, 1-(4-fluoro-2,3-dihydroindol-1-yl)-2-(1-methyl-4-morpholin-4-yl-6-thioxo-1,6-dihydropyrimidin-2-yl)ethanone] returned an IC50 of 31 nM.
`Cn1c(CC(=O)N2CC(C)(C)c3c(F)cccc32)nc(N2CCOCC2)cc1=O` [Example 7c, 2-[2-(4-fluoro-3,3-dimethyl-2,3-dihydro-1H-indol-1-yl)-2-oxoethyl]-3-methyl-6-(morpholin-4-yl)pyrimidin-4(3H)-one] gave an IC50 of 45 nM.

The test is the same for the next values; noted with them: PC3 cells, 1 to 2 h incubation, P-AKT-S473, absolute IC50, mean of two independent experiments.
The compound `CC1Cc2cc(F)ccc2N1C(=O)Cc1nc(N2CCOCC2)c(F)c(=O)[nH]1` (stereo not drawn) [Example 6a, 5-fluoro-2-[2-((+)-5-fluoro-2-methyl-2,3-dihydroindol-1-yl)-2-oxoethyl]-6-morpholin-4-yl-3H-pyrimidin-4-one] gave an IC50 of 10 nM.
`O=C(Cc1nc(N2CCOC(CF)C2)cc(=O)[nH]1)N1CCc2c(F)cccc21` (stereo not shown) [Example 6b, 2-[2-(4-fluoro-2,3-dihydroindol-1-yl)-2-oxoethyl]-6-(2-fluoromethylmorpholin-4-yl)-3H-pyrimidin-4-one]: the IC50 was determined as 58 nM.
Still for that read-out and setting: under `CC1Cc2c(O)cccc2N1C(=O)Cc1nc(N2CCOCC2)cc(=O)[nH]1` (stereo not shown) [Example 6c, 2-[2-(4-hydroxy-2-methyl-2,3-dihydro-1H-indol-1-yl)-2-oxoethyl]-6-(morpholin-4-yl)pyrimidin-4(3H)-one] stands 24 nM.
Regarding `CC1Cc2cc(F)ccc2N1C(=O)Cc1nc(N2CCOCC2)c(F)c(=O)[nH]1` (stereo not drawn) [Example 7a, 5-fluoro-2-[2-((−)-5-fluoro-2-methyl-2,3-dihydroindol-1-yl)-2-oxoethyl]-6-morpholin-4-yl-3H-pyrimidin-4-one], the IC50 worked out at 3 nM.

In general, IC50 refers to the point on the concentration scale where inhibition reaches its midpoint. Read a high IC50 as weaker potency.

These data come from US9133168B2, “Pyrimidine derivatives, preparation thereof, and pharmaceutical use thereof as akt(pkb) phosphorylation inhibitors” (SANOFI, priority 2010, dated 2015).
